Here are results for seven compounds from US7736624B2, “Methods and compositions for diagnostic and therapeutic targeting of COX-2” (priority 2006, dated 2010).

Each structure is given as a SMILES string. Read-outs that look alike come from different tables or passages of the source. Bounds are passed on as bounds.

The target of series [1] is T1, ovine COX-1 (Ovis aries, UniProt P05979).
T1 construct: can be purified from ovine seminal vesicles by standard procedures; from tissue; host or cells: ovine seminal vesicles
T1 sequence (P05979 25-600): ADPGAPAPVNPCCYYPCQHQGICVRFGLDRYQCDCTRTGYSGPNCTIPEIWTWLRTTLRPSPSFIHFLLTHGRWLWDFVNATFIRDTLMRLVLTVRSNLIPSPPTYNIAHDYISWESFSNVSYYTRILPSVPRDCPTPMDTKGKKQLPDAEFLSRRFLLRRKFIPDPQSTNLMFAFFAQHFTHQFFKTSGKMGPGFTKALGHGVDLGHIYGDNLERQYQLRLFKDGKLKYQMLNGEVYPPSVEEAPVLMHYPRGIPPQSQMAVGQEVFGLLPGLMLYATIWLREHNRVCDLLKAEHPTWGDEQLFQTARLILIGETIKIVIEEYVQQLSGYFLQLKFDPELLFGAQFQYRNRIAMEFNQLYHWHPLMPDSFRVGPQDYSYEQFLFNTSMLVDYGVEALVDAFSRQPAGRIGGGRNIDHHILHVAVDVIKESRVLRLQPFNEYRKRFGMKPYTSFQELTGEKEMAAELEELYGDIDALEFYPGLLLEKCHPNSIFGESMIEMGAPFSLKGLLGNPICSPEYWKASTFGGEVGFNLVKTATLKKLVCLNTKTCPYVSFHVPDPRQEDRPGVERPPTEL
The series can be described thus: IC50 determinations using purified enzymes (TLC assay), COX-1. It is filed as biochemical. As to conditions: Table 3; assayed against purified enzymes. An excerpt: (§1) Those skilled in the art will appreciate that an evaluation of the selectivity and efficacy of binding of the NSAID derivative to the COX-2 enzyme, e.g., after the derivative is synthesized, can be desirable. […] One example of an in vitro screening method takes advantage of the fact that both human and murine recombinant COX-2 can be expressed and isolated in pure form from an Sf9 cell expression system. […] Alternatively, membrane preparations from outdated human platelets can provide a source of human COX-1. […] The reaction is stopped by the addition of ethanol/methanol/1 M citrate, pH 4.0 (30:4:1). The extracted products are separated by thin layer chromatography (TLC), which allows quantitation of total product formation as well as assessment of product distribution. This assay is useful to define IC50 values for inhibition of either enzyme, and to determine time-dependency of inhibition. It also provides information concerning changes in products formed as a result of inhibition.
(§2) Reactions were terminated by solvent extraction in Et2O/CH3OH/1 M citrate, pH 4.0 (30:4:1). The phases were separated by centrifugation at 2000 g for 5 minutes and the organic phase was spotted on a 20×20 cm TLC plate (Lieselgel 60, EMD Chemicals, Inc., Gibbstown, N.J., United States of America). The plate was developed in EtOAc/CH2Cl2/glacial AcOH (75:25:1) at 4° C. Radiolabeled prostanoid products were quantitatively determined with a radioactivity scanner available from Bioscan, Inc. (Washington, D.C., United States of America). The percentage of total products observed at different concentrations of the presently disclosed compositions was divided by the percentage of products observed for protein samples preincubated for the same amount of time with DMSO.

Series [2] has as its target T2, COX-1 (Mus musculus, UniProt P22437).
T2 sequence (P22437 1-602): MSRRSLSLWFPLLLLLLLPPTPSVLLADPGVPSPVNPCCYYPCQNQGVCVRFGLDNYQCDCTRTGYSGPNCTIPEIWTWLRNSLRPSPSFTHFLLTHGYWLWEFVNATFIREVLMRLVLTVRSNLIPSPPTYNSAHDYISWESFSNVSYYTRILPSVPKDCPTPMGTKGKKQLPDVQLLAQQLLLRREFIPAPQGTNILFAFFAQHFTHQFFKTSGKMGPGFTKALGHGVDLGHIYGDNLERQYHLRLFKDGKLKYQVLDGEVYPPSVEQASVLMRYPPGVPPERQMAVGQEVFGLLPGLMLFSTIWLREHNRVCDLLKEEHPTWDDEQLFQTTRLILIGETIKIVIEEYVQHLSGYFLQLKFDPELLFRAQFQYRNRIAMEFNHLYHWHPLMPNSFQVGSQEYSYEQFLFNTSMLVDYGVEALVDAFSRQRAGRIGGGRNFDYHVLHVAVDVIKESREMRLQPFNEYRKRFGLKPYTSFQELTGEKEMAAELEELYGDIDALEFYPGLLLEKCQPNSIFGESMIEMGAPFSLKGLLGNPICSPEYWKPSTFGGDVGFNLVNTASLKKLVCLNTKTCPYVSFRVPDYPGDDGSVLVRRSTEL
The series can be described thus: Macrophage assay (RAW264.7), COX-1. In kind it is cell-based, murine. An excerpt:
(§3) Thus, NSAID derivatives that are identified as potentially useful in the methods described herein can be further tested using, for example, the RAW264.7 murine macrophage cell line. These cells are readily available (for example, from the American Type Culture Collection (ATCC), Manassas, Va., United States of America) and are easily cultured in large numbers. They normally express low levels of COX-1 and very low to undetectable levels of COX-2. Upon exposure to bacterial lipopolysaccharide (LPS), however, COX-2 levels increase dramatically over the ensuing 24 hour period, and the cells produce PGD2 and PGE2 from endogenous arachidonic acid stores (generally, ˜1 nmol/10^7 cells total PG formation). After LPS exposure, the addition of exogenous arachidonic acid results in the formation of additional PGD2 and PGE2 as a result of metabolism by the newly synthesized COX-2.
(§4) This system provides a number of approaches for testing the inhibitory potency of COX-2-selective ligands (e.g., inhibitors). In general, following LPS activation, cells can be treated for 30 minutes with the desired concentrations of candidate derivative(s) in DMSO. ^14C-arachidonic acid can be added, and the cells can be incubated for 15 minutes at 37° C. Product formation can be assessed following extraction and TLC separation of the culture medium. Alternatively, the effects of candidate derivatives on PG synthesis from endogenous arachidonic acid can be assessed by incubating cells with desired concentrations of candidate derivatives 30 minutes prior to LPS exposure. Following a 24-hour incubation, medium can be collected and extracted, and the amount of PGD2 and/or PGE2 can be assayed by gas chromatography-mass spectrometry, liquid chromatography-mass spectrometry, or ELISA.

Series [3] in a line: Fluorescence in buffer. In kind it is physicochemical. As to conditions: for Fluor. λex: excitation; for Fluor. λem: emission.
Series [4] addresses T3, COX-2 (Homo sapiens, UniProt P35354).
T3 sequence (P35354 18-604): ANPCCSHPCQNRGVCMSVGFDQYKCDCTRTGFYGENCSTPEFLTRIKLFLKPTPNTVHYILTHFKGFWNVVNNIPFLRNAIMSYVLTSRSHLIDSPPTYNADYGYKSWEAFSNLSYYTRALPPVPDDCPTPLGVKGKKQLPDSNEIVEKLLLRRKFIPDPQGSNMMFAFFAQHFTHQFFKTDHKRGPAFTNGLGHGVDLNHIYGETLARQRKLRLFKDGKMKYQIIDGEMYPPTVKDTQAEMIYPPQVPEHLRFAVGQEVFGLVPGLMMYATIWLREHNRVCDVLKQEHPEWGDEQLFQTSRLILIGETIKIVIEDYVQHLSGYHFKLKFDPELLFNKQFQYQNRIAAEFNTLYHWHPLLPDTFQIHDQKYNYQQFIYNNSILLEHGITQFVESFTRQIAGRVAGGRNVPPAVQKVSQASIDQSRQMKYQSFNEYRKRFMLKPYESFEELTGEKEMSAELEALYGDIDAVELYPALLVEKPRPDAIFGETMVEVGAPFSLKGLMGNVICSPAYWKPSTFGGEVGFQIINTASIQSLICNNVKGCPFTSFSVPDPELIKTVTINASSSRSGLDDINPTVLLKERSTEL
The series can be described thus: IC50 determinations using purified enzymes (TLC assay), COX-2. In kind it is biochemical. More on the design: made in house; host or cells: Sf9 insect cells. Conditions: assayed against purified enzymes, read-out: IC50 COX-2.
From the text: as §1, §2

Series [5] relates to RAW264.7 cells. The series can be described thus: In vitro cell imaging, LPS/IFNγ-activated RAW264.7 cells. Conditions: for fluorescence of control compounds in these in vitro assays: RAW264.7, HEK293/COX-2 and 1483 imaging assays. It is filed as cell-based, mouse. On the procedure:
RAW264.7 cells (a line established from a tumor induced in a mouse by Abelson murine leukemia virus and available from the American Type Culture Collection, Manassas, Va., United States of America) were grown overnight on 35 mm culture dishes (MatTek Corp., Ashland, Mass., United States of America) with glass coverslips in Dulbecco's Modified Eagle Medium (DMEM) plus 10% heat-inactivated fetal bovine serum (FBS). Platings of cells were done in order to reach 30% confluency the next day. After overnight growth, the growth medium was replaced with 2 ml serum-free DMEM per dish. Individual dishes then received 200 ng/ml LPS plus 10 units/ml murine IFNγ (Roche Applied Science, Indianapolis, Ind., United States of America) for 6 hours to induce COX-2. […] After 30 minutes, the cells were washed briefly three times in medium and incubated in Hank's balanced salt solution (HBSS)/Tyrode's for 60 minutes at 37° C. After 60 minutes, the HBSS/Tyrode's was removed and fresh HBSS/Tyrode's was added. The cells were immediately imaged using a Zeiss Axiovert 25 Microscope (propidium iodide filter/2-3 sec exposure/gain of 2).

Series [6] addresses T4, COX-2 (Mus musculus, UniProt Q05769).
T4 construct: metabolism by the newly synthesized COX-2; endogenous in cells
T4 sequence (Q05769 18-604): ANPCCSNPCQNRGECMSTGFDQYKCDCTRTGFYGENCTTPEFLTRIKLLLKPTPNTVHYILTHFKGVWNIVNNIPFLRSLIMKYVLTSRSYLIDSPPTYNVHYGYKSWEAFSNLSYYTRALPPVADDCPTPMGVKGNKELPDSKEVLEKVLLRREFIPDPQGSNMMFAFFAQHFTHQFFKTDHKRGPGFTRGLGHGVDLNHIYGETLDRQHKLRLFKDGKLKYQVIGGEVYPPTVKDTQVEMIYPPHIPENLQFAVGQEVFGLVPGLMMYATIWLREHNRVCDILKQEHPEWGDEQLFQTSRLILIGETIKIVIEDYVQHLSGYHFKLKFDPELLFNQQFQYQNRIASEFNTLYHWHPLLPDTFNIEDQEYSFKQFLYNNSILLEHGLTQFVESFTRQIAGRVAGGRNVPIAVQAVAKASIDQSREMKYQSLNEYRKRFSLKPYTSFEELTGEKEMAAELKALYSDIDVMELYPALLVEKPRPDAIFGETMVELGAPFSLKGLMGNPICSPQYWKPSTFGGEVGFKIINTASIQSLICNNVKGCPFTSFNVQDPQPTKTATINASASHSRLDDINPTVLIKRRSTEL
The series can be described thus: Macrophage assay (RAW264.7), COX-2. As to conditions: Table 2; macrophage assay (M); read-out: IC50 COX-2. In kind it is cell-based, murine.
From the text: as §3, §4

The target in series [7] is T5, COX-1 (Ovis aries, UniProt P05979).
T5 sequence (P05979 25-600): T1 sequence (P05979 25-600)
Conditions: literature; cited from earlier work.

On to `CCN(CC)c1ccc2c(-c3ccc(S(=O)(=O)NCCOCCOCCOCCOCCC(=O)NCCCCNC(=O)Cc4c(C)n(C(=O)c5ccc(Cl)cc5)c5ccc(OC)cc45)cc3S(=O)(=O)[O-])c3ccc(=[N+](CC)CC)cc-3oc2c1` [Compound 27iii, 5-(N-(23-(1-(4-chlorobenoyl)-5-methoxy-2-methyl-1H-indol-3-yl)-15,22-dioxo-3,6,9,12-tetraoxa-16,21-diazatricosyl)sulfamoyl)-2-(6-(diethylamino)-3-(diethyliminio)-3H-xanthen-9-yl)benzenesulfonate], for which the IC50 (in general, the concentration needed to halve the response being measured) in series [1] was more than 25 µM; in series [2] (Table 3, macrophage assay) it was more than 5e-06 M; in series [4] (Table 3), 0.16 µM. For the same compound, the “Fluor. λex” value in series [3] came to 571 nm.

For the compound `COc1ccc2c(c1)c(CC(=O)NCCNC(=O)c1ccc(C(=O)[O-])c(C3=c4cc5c6c(c4Oc4c3cc3c7c4CCCN7CCC3)CCC[N+]=6CCC5)c1)c(C)n2C(=O)c1ccc(Cl)cc1` [Compound 27ww], the IC50 in series [1] and in series [4] (Table 3) was more than 25 µM each time. Besides, in series [5] (200 nM, 30 minutes, LPS-activated RAW264.7), the “fluorescence imaging of cells” value is “No fluorescence above background”. Also, the “fluorescence of control compounds in these in vitro assays” value in series [5] was “minimal fluorescence”.

Turning to `COc1ccc2c(c1)c(CC(=O)NCCCNS(=O)(=O)c1cccc3c(N(C)C)cccc13)c(C)n2C(=O)c1ccc(Cl)cc1` [Compound 27y], the IC50 in series [1] is more than 25 µM; in series [2] (Table 3, macrophage assay), more than 1e-06 M; in series [4] (Table 3), 0.075 µM. The “Fluor. λem” value in series [3] is listed as 497 nm. Besides, in series [3], the “Fluor. λex” value is on record as 343 nm.

Regarding `COc1ccc2c(c1)c(CC(=O)NCCCCNS(=O)(=O)c1cccc3c(N(C)C)cccc13)c(C)n2C(=O)c1ccc(Cl)cc1` [Compound 27z], the IC50 in series [1] was more than 25 µM; in series [2] (Table 3, macrophage assay) it was more than 1e-06 M; in series [4] (Table 3), 0.067 µM. Also, the “Fluor. λem” value in series [3] worked out at 504 nm. Moreover, in series [3], the “Fluor. λex” value is reported as 324 nm.

As to `COc1ccc2c(c1)c(CCNC(=O)c1ccc(C3=c4cc5c6c(c4Oc4c3cc3c7c4CCCN7CCC3)CCC[N+]=6CCC5)c(C(=O)[O-])c1)c(C)n2Cc1ccc(Br)cc1` [Compound 28f], the IC50 in series [1] and in series [4] (Table 3) was more than 25 µM each time. For the same compound, the “fluorescence of control compounds in these in vitro assays” value in series [5] is listed as “minimal fluorescence”.

Turning to `Cc1ccc(-c2cc(CCC(=O)O)nn2-c2ccc(S(N)(=O)=O)cc2)cc1` [Compound 30c, 3-[1-{p-(Sulfonamido)phenyl}-5-p-tolyl-1H-pyrazol-3-yl]propanoic acid], the IC50 was 1.4e-06 M in series [6]; more than 5e-06 M in series [2] (Table 2, macrophage assay (M)); 8.9 µM in series [4] (Table 2).

Turning to `COc1ccc2c(c1)c(CC(=O)Nc1ccc(F)cc1)c(C)n2C(=O)c1ccc(Cl)cc1` [p-fluorophenylamide of indomethacin, indomethacin-N-(4-fluorophenyl)amide], the IC50 in series [7] was more than 66 µM.
